Test: recombinant barcode read abundance after kanamycin selection (control-corrected) (log10(CPM+1)); higher = more efficient recombination; sequences stand for … in AGTGCAGAGAAAATCGGCCAGTTTTCTCTGCCTGCAGTCCGCATGCCGT…AGATTTATGCAGCGGACTGCCTTTCTCCCAAAGTGATAAACCGGACAGTATCATGGACCGGTTTTCCCGGTAATCCGTATTTGCAAGGTTGGTTTCACT; site = the 11-nt target
In short: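 Two replicates per condition were plated: chloramphenicol/ampicillin LB agar for the control, and chloramphenicol/ampicillin/kanamycin with 0.1 mM IPTG for selection. The pooled E. coli screen behind them paired targets with IS621 bridge RNA target-binding loops. Recombination efficiency is expressed from averaged, control-corrected barcode counts per million at recombinant junctions, as log10(CPM+1).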
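Also: IS621 recombinase and bridge RNA in Escherichia coli cells.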

Row | Sequence | recombinant barcode read abundance (log10)
1 | TAGAATGCTTGGGTTCTAACCTGTTGCTT (site TAGAATGCTAG) | 0.148
2 | TAGACATCTTGGGTTCTAACCTGTTGCAT (site AAGACATCTAA) | 0.133
3 | TAGACATCTTGGGTTCTAACCTGTTGCAT (site TAGACATCTAT) | 0.353
4 | TAGACCACTTGGGTTCTAACCTGTTGCAC (site CTATATGCTAA) | 0.0777
5 | TAGACCACTTGGGTTCTAACCTGTTGCAC (site TAGACCACTGT) | 0.954
6 | TAGAGAGCTTGGGTTCTAACCTGTTGCGG (site TAAAGAGCTCC) | 1.57
7 | TAGAGAGCTTGGGTTCTAACCTGTTGCGG (site TACAGAGCTCC) | 0.202
8 | TAGAGAGCTTGGGTTCTAACCTGTTGCGG (site TAGAGAGCTCC) | 2.09
9 | TAGAGAGCTTGGGTTCTAACCTGTTGCGG (site TATAGAGCTCC) | 0.356
10 | TAGAGCTCTTGGGTTCTAACCTGTTGCTG (site TAGAGCTCTCA) | 0.75
11 | TAGAGCTCTTGGGTTCTAACCTGTTGCTG (site TAGTGCTCTGA) | 0.0075
12 | TAGATAACTTGGGTTCTAACCTGTTGCTG (site ACCCATTCTAC) | 0
13 | TAGATAACTTGGGTTCTAACCTGTTGCTG (site TAGATAACTCA) | 1.02
14 | TAGCACTCTTGGGTTCTAACCTGTTGCAG (site AAGCACCCTCT) | 0.0429
15 | TAGCACTCTTGGGTTCTAACCTGTTGCAG (site TAGCACTCTCT) | 2.08
16 | TAGCATACTTGGGTTCTAACCTGTTGCCC (site TAGCATACTAG) | 0.329
17 | TAGCATACTTGGGTTCTAACCTGTTGCCC (site TAGCATACTCG) | 0.266
18 | TAGCATACTTGGGTTCTAACCTGTTGCCC (site TAGCATACTGG) | 0.941
19 | TAGCATACTTGGGTTCTAACCTGTTGCCC (site TAGCATACTTG) | 0.187
20 | TAGCATGCTTGGGTTCTAACCTGTTGCAG (site TAGCATGCTAT) | 0.0261
21 | TAGCATGCTTGGGTTCTAACCTGTTGCAG (site TAGCATGCTCT) | 1.44
22 | TAGCATGCTTGGGTTCTAACCTGTTGCAG (site TAGCATGCTGT) | 0.0603
23 | TAGCATGCTTGGGTTCTAACCTGTTGCAG (site TAGCATGCTTT) | 0.017
24 | TAGCATGCTTGGGTTCTAACCTGTTGCAT (site TAGCATGCTAT) | 0.434
25 | TAGCATGCTTGGGTTCTAACCTGTTGCAT (site TAGCATGCTCT) | 0.204
26 | TAGCATGCTTGGGTTCTAACCTGTTGCAT (site TAGCATGCTGT) | 0.228

Row | Sequence | recombinant barcode read abundance (log10)
27 | TAGCATGCTTGGGTTCTAACCTGTTGCAT (site TAGCATGCTTT) | 0.065
28 | TAGCCATCTTGGGTTCTAACCTGTTGCTC (site TAGACATCTGA) | 0.0329
29 | TAGCCATCTTGGGTTCTAACCTGTTGCTC (site TAGCCATCTGA) | 0.508
30 | TAGCCATCTTGGGTTCTAACCTGTTGCTC (site TAGGCATCTGA) | 0.404
31 | TAGCCATCTTGGGTTCTAACCTGTTGCTC (site TAGTCATCTGA) | 0
32 | TAGCCTACTTGGGTTCTAACCTGTTGCGG (site TAGCCTACTAC) | 0.0228
33 | TAGCCTACTTGGGTTCTAACCTGTTGCGG (site TAGCCTACTCC) | 1.41
34 | TAGCCTACTTGGGTTCTAACCTGTTGCGG (site TAGCCTACTGC) | 0.0519
35 | TAGCCTACTTGGGTTCTAACCTGTTGCGG (site TAGCCTACTTC) | 0.00783
36 | TAGCCTGCTTGGGTTCTAACCTGTTGCCT (site TAGACTGCTAG) | 0.0305
37 | TAGCCTGCTTGGGTTCTAACCTGTTGCCT (site TAGCCTGCTAG) | 1.35
38 | TAGCCTGCTTGGGTTCTAACCTGTTGCCT (site TAGGCTGCTAG) | 0.026
39 | TAGCCTGCTTGGGTTCTAACCTGTTGCCT (site TAGTCTGCTAG) | 0.177
40 | TAGCGCACTTGGGTTCTAACCTGTTGCGG (site TAGCACACTCC) | 0.28
41 | TAGCGCACTTGGGTTCTAACCTGTTGCGG (site TAGCCCACTCC) | 0.076
42 | TAGCGCACTTGGGTTCTAACCTGTTGCGG (site TAGCGCACTCC) | 1.33
43 | TAGCGCACTTGGGTTCTAACCTGTTGCGG (site TAGCTCACTCC) | 0.13
44 | TAGCGGCCTTGGGTTCTAACCTGTTGCCT (site TAACGGCCTAG) | 0.651
45 | TAGCGGCCTTGGGTTCTAACCTGTTGCCT (site TACCGGCCTAG) | 0.0223
46 | TAGCGGCCTTGGGTTCTAACCTGTTGCCT (site TAGCGGCCTAG) | 0.428
47 | TAGCGGCCTTGGGTTCTAACCTGTTGCCT (site TATCGGCCTAG) | 0.0926
48 | TAGCGTACTTGGGTTCTAACCTGTTGCGT (site TAGCGTACTAC) | 0.805
49 | TAGCGTACTTGGGTTCTAACCTGTTGCGT (site TAGCGTACTCC) | 0.0572
50 | TAGCTCCCTTGGGTTCTAACCTGTTGCCC (site TAGCTCCCTAG) | 0.279
51 | TAGCTCCCTTGGGTTCTAACCTGTTGCCC (site TAGCTCCCTCG) | 0.115
52 | TAGCTCCCTTGGGTTCTAACCTGTTGCCC (site TAGCTCCCTGG) | 0.872

Row | Sequence | recombinant barcode read abundance (log10)
53 | TAGCTCCCTTGGGTTCTAACCTGTTGCCC (site TAGCTCCCTTG) | 0.0924
54 | TAGCTGACTTGGGTTCTAACCTGTTGCCC (site GTTTGACCTCC) | 0.136
55 | TAGCTGACTTGGGTTCTAACCTGTTGCCC (site TAGCTGACTGG) | 0.932
56 | TAGCTGTCTTGGGTTCTAACCTGTTGCGT (site AATCTGTCTAC) | 0.106
57 | TAGCTGTCTTGGGTTCTAACCTGTTGCGT (site TAGCTGTCTAC) | 2.29
58 | TAGGATACTTGGGTTCTAACCTGTTGCAC (site TAGGATACTAT) | 0.34
59 | TAGGATACTTGGGTTCTAACCTGTTGCAC (site TAGGATACTCT) | 0.729
60 | TAGGATACTTGGGTTCTAACCTGTTGCAC (site TAGGATACTGT) | 2.08
61 | TAGGATACTTGGGTTCTAACCTGTTGCAC (site TAGGATACTTT) | 0.107
62 | TAGGATACTTGGGTTCTAACCTGTTGCAG (site TAGGATACTAT) | 0.29
63 | TAGGATACTTGGGTTCTAACCTGTTGCAG (site TAGGATACTCT) | 2.5
64 | TAGGATACTTGGGTTCTAACCTGTTGCAG (site TAGGATACTGT) | 0.106
65 | TAGGATACTTGGGTTCTAACCTGTTGCAG (site TAGGATACTTT) | 0.351
66 | TAGGATACTTGGGTTCTAACCTGTTGCAT (site TAGGATACTAT) | 1.55
67 | TAGGATACTTGGGTTCTAACCTGTTGCAT (site TAGGATACTCT) | 0.583
68 | TAGGATACTTGGGTTCTAACCTGTTGCAT (site TAGGATACTGT) | 0.0987
69 | TAGGATACTTGGGTTCTAACCTGTTGCAT (site TAGGATACTTT) | 0.0945
70 | TAGGATACTTGGGTTCTAACCTGTTGCGT (site TAGGAAACTAC) | 0.314
71 | TAGGATACTTGGGTTCTAACCTGTTGCGT (site TAGGACACTAC) | 0.928
72 | TAGGATACTTGGGTTCTAACCTGTTGCGT (site TAGGAGACTAC) | 0.266
73 | TAGGATACTTGGGTTCTAACCTGTTGCGT (site TAGGATACTAC) | 3.02
74 | TAGGATCCTTGGGTTCTAACCTGTTGCGA (site ACCCGCTCTAG) | 0.205
75 | TAGGATCCTTGGGTTCTAACCTGTTGCGA (site TAGGATCCTTC) | 2.71
76 | TAGGATTCTTGGGTTCTAACCTGTTGCCT (site TAATATTCTAG) | 0.0335
77 | TAGGATTCTTGGGTTCTAACCTGTTGCCT (site TAGGATTCTAG) | 1.88
